This is an account of results in ChEMBL document CHEMBL4316647, “Raistrickindole A, an Anti-HCV Oxazinoindole Alkaloid from Penicillium raistrickii IMB17-034” (J Nat Prod, 2019).

Some results are limits rather than exact numbers.

In one data set the test system is Staphylococcus aureus. In words: Antibacterial activity against Staphylococcus aureus. It is filed as functional.
A further data set has as its system Enterococcus faecalis. The data set is described as follows: Antibacterial activity against Enterococcus faecalis. It counts as functional.
The test system of a further data set is Hepatitis C virus. In words: Antiviral activity against HCV infected in human Huh7.5 cells assessed as reduction in intracellular HCV RNA incubated for 72 hrs by real-time one-step reverse-transcription polymerase chain reaction assay. It counts as functional, organism-based, Hepacivirus hominis. The settings on record: Huh7.5, 72 h.
A further data set relates to A549. The data set is described as follows: Cytotoxicity against human A549 cells. It is filed as functional, cell-based.
A further data set has as its system NCI-H460. In words: Cytotoxicity against human NCI-H460 cells. It counts as functional, cell-based.
In another data set the test system is Escherichia coli. The data set is described as follows: Antibacterial activity against Escherichia coli. It counts as functional.
The next data set concerns HCT-116. In words: Cytotoxicity against human HCT116 cells. It counts as functional, cell-based.
Data set [1] can be described thus: Cytotoxicity against human Huh7.5 cells assessed as reduction in cell viability. It counts as cell-based.
For the next data set, the system named is Pseudomonas aeruginosa. The data set is described as follows: Antibacterial activity against Pseudomonas aeruginosa. It counts as functional.
Data set [2] is described as follows: Selectivity index, ratio of CC50 for Cytotoxicity against human Huh7.5 cells to EC50 for antiviral activity against HCV infected in human Huh7.5 cells. It is filed as toxicity, cell-based. The following applies: read-out: Ratio CC50/EC50.

As to `O=C1N[C@@H](Cc2ccccc2)C(=O)N2O[C@H]3Nc4ccccc4[C@@]3(O)C[C@@H]12`, the MIC against Staphylococcus aureus, in the data set with Enterococcus faecalis, against Escherichia coli and in the data set on Pseudomonas aeruginosa was over 128 µg/mL throughout. Besides, in the data set with Hepatitis C virus, the EC50 came out at 5.7 µM. The IC50 in the data set on A549, with NCI-H460 and with HCT-116 was at least 100 µM in each case. Moreover, in data set [1], the CC50 is over 200 µM. Further, the selectivity ratio in data set [2] was over 35.

In the case of `CCC[C@H](NC(=O)[C@@H]1[C@H]2CCC[C@H]2CN1C(=O)[C@@H](NC(=O)[C@@H](NC(=O)c1cnccn1)C1CCCCC1)C(C)(C)C)C(=O)C(=O)NC1CC1` [TELAPREVIR], the EC50 in the data set on Hepatitis C virus turned out to be 0.05 µM. Also, the CC50 in [1] worked out at 25.8 µM. The selectivity ratio in data set [2] came out at 478.

In the case of `O=C1NCc2nc3ccccc3c(=O)n2-c2ccccc21` [SCLEROTIGENIN], the MIC in the data set on Staphylococcus aureus, with Enterococcus faecalis, against Escherichia coli and in the data set with Pseudomonas aeruginosa was over 128 µg/mL in each case. The EC50 in the data set on Hepatitis C virus came to 5.8 µM. In addition, the IC50 in the data set on A549, with NCI-H460 and in the data set on HCT-116 was at least 100 µM each time. Besides, the CC50 in [1] was over 200 µM. Moreover, the selectivity ratio in [2] is over 35.

Turning to `O=C1Cn2c(nc3ccccc3c2=O)-c2ccccc2N1`, the MIC in the data set on Staphylococcus aureus, in the data set on Enterococcus faecalis, against Escherichia coli and with Pseudomonas aeruginosa was over 128 µg/mL in each case. Also, the concentration for a half-maximal effect (EC50) with Hepatitis C virus stood at 7 µM. Also, the IC50 in the data set with A549, in the data set with NCI-H460 and with HCT-116 was at least 100 µM in each case. The CC50 in data set [1] was over 200 µM. Further, in data set [2], the selectivity ratio is over 28.

Regarding `O=C1N[C@@H](Cc2ccccc2)C(=O)N(O)[C@H]1C[C@]1(O)c2ccccc2N2C(=O)C[C@@H](c3ccccc3)N[C@H]21`, the MIC against Staphylococcus aureus, against Enterococcus faecalis, with Escherichia coli and in the data set with Pseudomonas aeruginosa was over 128 µg/mL in each case. Also, the EC50 in the data set on Hepatitis C virus was over 33.3 µM. Moreover, the IC50 with A549, in the data set on NCI-H460 and in the data set on HCT-116 was at least 100 µM each time. The CC50 in data set [1] worked out at 88.4 µM. In addition, the selectivity ratio in data set [2] is under 3.
